Consider three molecules from PMC7617869, “Molecular glues that inhibit deubiquitylase activity and inflammatory signaling” (Nature Structural & Molecular Biology, 2025).

The test system of data set [1] is THP-1 cells. The data set is described as follows: THP-1 live cell percentage. In kind it is cell-based. The settings on record: THP-1, hIFNα2 25 ng/mL, 4 μM compound, 16 h. Here is the method: THP-1 in vitro experiments
THP-1-DualTM cells (InvivoGen), derived from a human monocytic cell line, isolated from a patient with acute monocytic leukaemia, were cultured as per manufacturer’s guidance. Cells were seeded at 1x10^6 cells/mL in RPMI1640 media containing 10% fetal bovine serum (FBS), 1% penicillin-streptomycin (PS) (Gibco Laboratories) with DMSO (0.1%) (control) or in media containing JMS-175- […]
ng/mL) (Merck Life Science), ODN 2216 (1 µM) (Miltenyi Biotec), or Poly:IC (1 µg/mL) (InvivoGen).
Tofacitinib (Cambridge Biosciences) at 0.4 µM was used for comparison against a known JAK inhibitor.
Cells were centrifuged at 300 g for 5 minutes. Supernatant was removed and subjected to simultaneous study of the NF -κB pathway, by monitoring the activity of secreted alkaline phosphatase reporter (SEAP), and the IRF pathway, by assessing the activity o f a secreted Lucia luciferase using QUANTI - Blue ™ Solution and QUANTI -Luc™ 4 Lucia/Gaussia (InvivoGen), respectively, as per manufacturer’s instructions. Pelleted cells were used for FACS analysis using IFNα/β R1 APC-conjugated antibody or isotype control (Biotechne, FAB245A and IC002A), or unstained staining procedure with and without Zombie GreenTM (Biolegend). Samples were analysed using CytoFlex LX (Beckman) (50,000 live cells per condition). Median fluorescence intensity for APC channel gated on single cell live cells was analysed and compared as a percentage to control (no stimulation condition). […]

Data set [2] has as its system CXCL10 secretion in SSc PBMCs. Nature of the data set: SSc PBMC CXCL10 ELISA, unstimulated. In kind it is cell-based, human. The settings on record: for CXCL10 secretion: basal, nonstimulated SSc PBMCs, 16 h. Here is the method:
(§1) PBMCs in vitro experiments
(§2) Peripheral blood mononuclear cells (PBMCs) from healthy and SSc donors were separated using density gradient method (Leucosep™, Greiner Bio-One International) from EDTA anticoagulated peripheral blood; isolated cells were washed twice by PBS. PBMCs were then incubated in RPMI1640 […]
For healthy PBMCs, cells were stimulated with 20 ng/mL of IFN (+/- compounds or DMSO). For SSc PBMCs, cells were in basal conditions with no additional IFN stimulation. Cells were centrifuged at 300 g for 10 minutes. Supernatant was removed and subjected to R&D Systems DY266 Human CXCL10/IP-10 DuoSet ELISA (Biotechne) in duplicates, according to manufacturer’s guidance. Concentration of CXCL10 was determined according to a 4-parameter
(ELISA stands for enzyme-linked immunosorbent assay.)

Data set [3] has as its system ISG expression in healthy control PBMCs. The data set is described as follows: Healthy PBMC type I IFN signaling gene expression array, IFNα2-stimulated. The data set is classed as cell-based, human. The settings on record: IFNα2 20 ng/mL, 2 µM, 16 h. Here is the method:
NEM). Cell lysates were clarified by centrifugation at 15,000 g for 10 minutes at 4 °C. Clarified lysates were pre-cleared with control uncoupled agarose beads (UM400, LifeSensors) for 30 minutes on a rotator at 4 °C followed by centrifugation at 5,000 g for 2 minutes. Equal amount of pre-cleared lysates from individual samples were incubated with 20 µL Agarose-TUBE beads (pre-equilibrated with 1X Tris-buffered saline (TBS)) overnight on a rotator at 4 °C. Beads were collected by centrifugation at 5,000 g for 2 minutes at RT followed by four stringent washes with 1X TBST (TBS, 0.1% Tween-20). TUBE-pulldown proteins were eluted by boiling Agarose-TUBE beads in 2X LDS sample buffer supplemented with […] DTT for 15 minutes. Eluted proteins were resolved on NuPAGE™ 4–12% Bis–Tris gel followed by Western blotting using anti-IFNAR1 antibody (ab124764, Abcam).
as §1, §2
For healthy PBMCs, cells were stimulated with 20 ng/mL of IFN (+/- compounds or DMSO). […] Concentration of CXCL10 was determined according to a 4-parameter logistic regression standard curve. […]
For Type I IFN signalling analysis, the human IFN I RT2 Profiler PCR Array (Qiagen, PAMM-016ZE) was performed on available RNA from healthy (n=3) and SSc (n=9) donors. […] Relative expression for each gene was determined, firstly by ∆CT calculated using the geometric mean of 4 housekeeping genes (ACTB, GAPDH, HPRT1, RPLP0), followed by 2^(-∆CT), and expressed as fold change to control, according to manufacturer’s guidance. IFN2α-induced ISGs in healthy donors were determined using a Student’s t-test (two-tail distribution and equal variances) on the triplicate fold change in 2^(-ΔCT) values between […]
R Foundation for Statistical Computing). The IFN2α inducible genes determined in healthy donors […]

With `O=C(NC1CCNCC1)c1nn(C(=O)c2c(Cl)cccc2Cl)cc1NC(=O)c1c(Cl)cccc1Cl` [JMS-175-2], the “percentage of live cells” value in data set [1] was 98.05%. Moreover, the “CXCL10, SSc donor PBMCs (Fig. 6d)” value in data set [2] (SSc donor ID 68) was 66.733; in data set [2] (SSc donor ID 78) it was 0; in data set [2] (SSc donor ID 79), 0; in data set [2] (SSc donor ID 142), 7.1246; in data set [2] (SSc donor ID 205), 83.3318; in data set [2] (SSc donor ID 219), 3.3086. In data set [2] (SSc donor ID 244), the “CXCL10, SSc donor PBMCs (Fig. 6d)” value is 0. In data set [2], the CXCL10 secretion entry is “reduced CXCL10 secretion”. In addition, the “number of the 34 IFN-upregulated ISGs suppressed compared to AP-5-145” value in data set [3] was 13.
On to `Cn1cc(NC(=O)c2c(Cl)cccc2Cl)c(C(=O)NC2CCN(C(=O)c3c(Cl)cccc3Cl)CC2)n1` [AP-5-145], for which the “percentage of live cells” value in data set [1] stood at 98.52%. In addition, the “CXCL10, SSc donor PBMCs (Fig. 6d)” value in data set [2] (SSc donor ID 68) is 80; in data set [2] (SSc donor ID 78) it was 67.741; in data set [2] (SSc donor ID 79) it was 66.2158; in data set [2] (SSc donor ID 142), 86.6322; in data set [2] (SSc donor ID 205), 91.7468; in data set [2] (SSc donor ID 219), 90.6622. Further, the “CXCL10, SSc donor PBMCs (Fig. 6d)” value in data set [2] (SSc donor ID 244) was 57.7808. In data set [3], the “IFN-induced ISG expression (in words)” value was “no difference in ISG expression profile”.
Consider `O=C(NC1C2CNCC21)c1nn(C(=O)c2c(Cl)cccc2Cl)cc1NC(=O)c1c(Cl)cccc1Cl` (centres unmarked) [FX-171-C], for which, in data set [1], the “percentage of live cells” value came to 97.99%. The “CXCL10, SSc donor PBMCs (Fig. 6d)” value was 72.6224 in data set [2] (SSc donor ID 68); 6.824 in data set [2] (SSc donor ID 78); 0 in data set [2] (SSc donor ID 79); 86.6599 in data set [2] (SSc donor ID 142); 108.154 in data set [2] (SSc donor ID 205); 48.1818 in data set [2] (SSc donor ID 219). Further, the “CXCL10, SSc donor PBMCs (Fig. 6d)” value in data set [2] (SSc donor ID 244) was 0. In addition, in data set [2], the CXCL10 secretion result was “reduced CXCL10 secretion”. Moreover, the “IFN-induced ISG expression (in words)” value in data set [3] is “less reduction in ISG expression”.
